Results reported in patent US6562993B1, “Preservative compounds” (ISP Investments Inc., priority 2002, dated 2003).

Experiments:
Experiment in all cases: Minimum Inhibitory Concentration (MIC) Test, serial dilution
Format in all cases: cell-based
[1] = test system: Candida albicans ATCC 10231; conditions: C. albicans; weight percent of active ingredients; propylene glycol solvent
Protocol: (§1) The Minimum Inhibitory Concentration (MIC) Test is an in vitro serial dilution procedure to assess antimicrobial activity. The MIC of a substance is the minimum concentration that will inhibit the growth of test organisms. Two species each of bacteria and fungi were included in the evaluation.
(§2) Cultiloop™ transfer cultures were used, and the bacteria were cultured on Brain Heart Infusion agar for 24 hours at 37° C. A saline suspension of each bacterial species was prepared and standardized on the spectrophotometer to the organism inoculum concentration. The yeast culture (Candida) was grown on a slant of Saboraud Dextrose agar for 48 hours at 27° C., and the slant was then washed with saline to prepare the inoculum. The mold culture (Aspergillus) was incubated for 7-10 days at 27° C. until sporulation occurred. The mold inoculum was prepared by washing the mature slant and harvesting the spores after filtration through sterile gauze.
(§3) The results are summarized in the Table below, where the concentrations refer to the weight percents of active ingredients.

[2] = test system: Aspergillus niger ATCC 16404; conditions: A. niger; weight percent of active ingredients; propylene glycol solvent
Protocol: as §1, §2, §3

[3] = test system: Staphylococcus aureus ATCC 6538; conditions: S. aureus; weight percent of active ingredients; propylene glycol solvent
Protocol: as §1, §2, §3

[4] = test system: Burkholderia cepacia ATCC 25416; conditions: B. cepacia; weight percent of active ingredients; propylene glycol solvent
Protocol: as §1, §2, §3

Structure (SMILES) | MIC Cidal [1] [%] | MIC Static [1] [%] | MIC Cidal [2] [%] | MIC Static [2] [%] | MIC Cidal [3] [%] | MIC Static [3] [%] | MIC Cidal [4] [%] | MIC Static [4] [%]
CC(Br)(C#N)CCC#N (stereo not shown) [Compound II, 2-bromo-2-methylglutaronitrile] | <0.05 | <0.05 | 0.10 | <0.05 | 0.10 | <0.05 | <0.05 | <0.05
N#CCCC(Br)(C#N)CBr (stereo not shown) [Merguard ®, 1,2-dibromo-2,4-dicyanobutane] | <0.05 | <0.05 | <0.05 | <0.05 | <0.05 | <0.05 | <0.05 | <0.05
